Read-outs that look alike come from different tables or passages of the source.
What was measured:
[1] = tested on: HIV-1 (strain LAV); assay: microbe, parasite or virus in culture; assay type: cell-based
Text: It is often desirable to screen a number of racemic mixtures of nucleosides as a preliminary step to determine which warrant further resolution into enantiomerically enriched components and evaluation of antiviral activity. The ability of nucleosides to inhibit HIV can be measured by various experimental techniques. The technique used herein, and described in detail below, measures the inhibition of viral replication in phytohemagglutinin (PHA) stimulated human peripheral blood mononuclear (PBM) cells infected with HIV-1 (strain LAV). The amount of virus produced is determined by measuring the virus-coded reverse transcriptase enzyme. The amount of enzyme produced is proportional to the amount of virus produced.
A. Three-day-old phytohemagglutinin-stimulated PBM cells (10^6 cells/ml) from hepatitis B and HIV-1 seronegative healthy donors were infected with HIV-1 (strain LAV) at a concentration of about 100 times the 50% tissue culture infectious dose (TICD 50) per ml and cultured in the presence and absence of various concentrations of antiviral compounds.
B. Approximately one hour after infection, the medium, with the compound to be tested (2 times the final concentration in medium) or without compound, was added to the flasks (5 ml; final volume 10 ml). AZT was used as a positive control.
C. The cells were exposed to the virus (about 2×10^5 dpm/ml, as determined by reverse transcriptase assay) and then placed in a CO2 incubator. HIV-1 (strain LAV) was obtained from the Center for Disease Control, Atlanta, Ga. The methods used for culturing the PBM cells, harvesting the virus and determining the reverse transcriptase activity were those described by McDougal et al. (J. Immun. Meth. 76, 171-183, 1985) and Spira et al. (J. Clin. Meth. 25, 97-99, 1987), except that fungizone was not included in the medium (see Schinazi, et al., Antimicrob. Agents Chemother. 32, 1784-1787 (1988); Id., 34:1061-1067 (1990)).
D. On day 6, the cells and supernatant were transferred to a 15 ml tube and centrifuged at about 900 g for 10 minutes. Five ml of supernatant were removed and the virus was concentrated by centrifugation at 40,000 rpm for 30 minutes (Beckman 70.1 Ti rotor). The solubilized virus pellet was processed for determination of the levels of reverse transcriptase. Results are expressed in dpm/ml of sampled supernatant. Virus from smaller volumes of supernatant (1 ml) can also be concentrated by centrifugation prior to solubilization and determination of reverse transcriptase levels.

[2] = tested on: HIV; conditions: cited from earlier work
[3] = tested on: AZT-resistant, HIV isolates; conditions: isolates from patients treated with AZT for longer than 36 weeks; cited from earlier work
[4] = Egress of radiolabeled (±)-FTC from human PBM cells; assay type: in vitro ADME; conditions: human PBM cells, after 24 hour pulse with 10 μM; read-out: intracellular half-life (converted)
Experimental: (§1) Studies are conducted in duplicate. Uninfected cells (2×10^6 ml) are suspended in the appropriate medium supplemented with serum (10 ml per timepoint) and incubated at 37° C. in a 5% CO2 incubator. Radiolabeled FTC concentration is 10 μM. After pulsing the cells with the labeled compound for the desired time, the cells are thoroughly washed and then replenished with fresh medium without the antiviral drugs (0 hr). At 0, 2, 4, 6, 12, 24, and 48 hours (second incubation time), the cells are removed, and immediately extracted with 60% cold methanol/water. The extract is obtained by centrifugation and removal of the cell pellet. The extracts are lyophilized and then stored at −70° C. Prior to analysis, the material is resuspended in 250 μl of HPLC buffer and immediately analyzed.
(§2) Either a Micromeritics or Hewlett-Packard model 1090 PHLC system is used with an anion exchange Partisil 10 SAX column (Whatman, Inc.), at a flow rate of 1 ml/min, 1 kpsi pressure, using uv detection at 262 nm.
(§3) The mobile phase consists of:
(§4) b. 2 mM NaH2PO4/16 mM NaOAc (pH=6.6)
(§5) Separation method: isocratic for 5 min with A, followed by a 15 min linear gradient to 100% B, followed by a 20 min linear gradient to 100% C, followed by 10 min linear gradient to 100% D, followed by 30 min isocratic with 100% D.

[5] = tested on: human PBM cells; assay: as above; assay type: in vitro ADME; conditions: 48 hours after the removal of the extracellular drug
Experimental: as §1, §2, §3, §4, §5

[6] = target: T1, HIV RT (Human immunodeficiency virus type 1 group M subtype B, UniProt P04585); assay: Affinity of triphosphate against HIV RT; assay type: biochemical; conditions: read-out: affinity (K^1) against HIV RT
T1 construct: (±)-FTC triphosphate against HIV RT is 0.2 μM

[7] = Cytotoxicity in mitogen stimulated uninfected human PBM cells (trypan blue exclusion); assay type: cell-based
Text: The cells were counted after 6 days using a hemacytometer and the trypan blue exclusion method, as described by Schinazi et al., Antimicrobial Agents and Chemotherapy, 22(3), 499 (1982).

[8] = tested on: HBV (hepatitis B virus)
[9] = target: reverse transcriptase activity; conditions: read-out: EC50, concentration required to reduce the reverse transcriptase activity by 50%; cited from earlier work

With `Nc1ccn(C2CSC(CO)O2)c(=O)n1` (racemic) [BCH-189 (±), 2-hydroxymethyl-5-(cytosin-1-yl)-1,3-oxathiolane, reference compound] the DPM/ml ([1]; 0.001 μM) was 65,170 DPM/ml, the DPM/ml ([1]; 0.005 μM) was 62,595 DPM/ml and the DPM/ml ([1]; 0.01 μM) was 70,875 DPM/ml. For the same compound, the DPM/ml ([1]; 0.05 μM) was 77,650 DPM/ml, the DPM/ml ([1]; 0.1 μM) was 33,165 DPM/ml and the DPM/ml ([1]; 0.5 μM) was 10,765 DPM/ml. The DPM/ml ([1]; 1 μM) was 7,745 DPM/ml, the DPM/ml ([1]; 5 μM) was 6,800 DPM/ml and the DPM/ml ([1]; 10 μM) was 4,470 DPM/ml. For the same compound, the EC50 ([1]; Human immunodeficiency virus 1, PBMC, human PBM cells infected with HIV-1, enantiomers isolated by chiral HPLC (Example 3), read-out: EC50) was 81 nM, the inhibition at 0.001 µM ([1]; Human immunodeficiency virus 1, PBMC, 0.001 μM, read-out: % Inhibition (Corrected)) was 36.1% and the inhibition at 0.005 µM ([1]; Human immunodeficiency virus 1, PBMC, 0.005 μM, read-out: % Inhibition (Corrected)) was 38.9%. The inhibition at 0.01 µM ([1]; Human immunodeficiency virus 1, PBMC, 0.01 μM, read-out: % Inhibition (Corrected)) was 29.8%, the inhibition at 0.05 µM ([1]; Human immunodeficiency virus 1, PBMC, 0.05 μM, read-out: % Inhibition (Corrected)) was 22.3% and the inhibition at 0.1 µM ([1]; Human immunodeficiency virus 1, PBMC, 0.1 μM, read-out: % Inhibition (Corrected)) was 71.4%. It also gave an inhibition at 0.5 µM ([1]; Human immunodeficiency virus 1, PBMC, 0.5 μM, read-out: % Inhibition (Corrected)) of 96.2%, an inhibition at 1 µM ([1]; Human immunodeficiency virus 1, PBMC, 1 μM, read-out: % Inhibition (Corrected)) of 99.5% and an inhibition at 5 µM ([1]; Human immunodeficiency virus 1, PBMC, 5 μM, read-out: % Inhibition (Corrected)) of 101%. For the same compound, the inhibition at 10 µM ([1]; Human immunodeficiency virus 1, PBMC, 10 μM, read-out: % Inhibition (Corrected)) was 103%, the “activity against HIV compared with AZT” value [2] was “approximately the same activity against HIV as AZT” and the “replication of AZT-resistant HIV isolates” value [3] was “inhibit the replication”.
In the case of `Nc1nc(=O)n(C2CSC(COP(=O)(O)OP(=O)(O)OP(=O)(O)O)O2)cc1F` (racemic) [FTC-triphosphate], the half-life at 10 μM [4] is reported as roughly 12 h, the intracellular concentration [5] is reported as 1 to 5 µM and the Ki [6] is reported as 200 nM.
For `Nc1nc(=O)n(C2CSC(CO)O2)cc1F` (single isomer, unassigned; (+)) [DLS-059 (+), (+)-2-hydroxymethyl-5-(5-fluorocytosin-1-yl)-1,3-oxathiolane], the DPM/ml ([1]; 0.001 μM, listed as FTC (+)) was 94,340 DPM/ml, the “% Inhibition (Corrected)” value ([1]; 0.001 μM, listed as FTC (+), 0.001 µM) was 3.8% and the DPM/ml ([1]; 0.005 μM, listed as FTC (+)) was 107,430 DPM/ml. For the same compound, the “% Inhibition (Corrected)” value ([1]; 0.005 μM, listed as FTC (+), 0.005 µM) was −10.6%, the DPM/ml ([1]; 0.01 μM, listed as FTC (+)) was 99,465 DPM/ml and the “% Inhibition (Corrected)” value ([1]; 0.01 μM, listed as FTC (+), 0.01 µM) was −1.8%. For the same compound, the DPM/ml ([1]; 0.05 μM, listed as FTC (+)) was 87,120 DPM/ml, the “% Inhibition (Corrected)” value ([1]; 0.05 μM, listed as FTC (+), 0.05 µM) was 11.8% and the DPM/ml ([1]; 0.1 μM, listed as FTC (+)) was 86,340 DPM/ml. The “% Inhibition (Corrected)” value ([1]; 0.1 μM, listed as FTC (+), 0.1 µM) was 12.7%, the DPM/ml ([1]; 0.5 μM, listed as FTC (+)) was 33,225 DPM/ml and the “% Inhibition (Corrected)” value ([1]; 0.5 μM, listed as FTC (+), 0.5 µM) was 71.4%. The EC50 ([1]; summary range, listed as (+)-enantiomer of FTC, read-out: EC50 against HIV) was 280 to 840 nM.
For `Nc1nc(=O)n(C2CSC(CO)O2)cc1F` (single isomer, unassigned; (-)) [DLS-058 (−), (−)-2-hydroxymethyl-5-(5-fluorocytosin-1-yl)-1,3-oxathiolane], the IC50 at 6 days [7] was greater than 100000 nM, the “% Inhibition (Corrected)” value ([1]; 0.001 μM, listed as FTC (−)) was 23.8% and the DPM/ml ([1]; 0.001 μM, listed as FTC (−)) was 76,275 DPM/ml. For the same compound, the “% Inhibition (Corrected)” value ([1]; 0.005 μM, listed as FTC (−)) was 43.3%, the DPM/ml ([1]; 0.005 μM, listed as FTC (−)) was 58,590 DPM/ml and the “% Inhibition (Corrected)” value ([1]; 0.01 μM, listed as FTC (−)) was 24.8%. The DPM/ml ([1]; 0.01 μM, listed as FTC (−)) was 75,350 DPM/ml, the “% Inhibition (Corrected)” value ([1]; 0.05 μM, listed as FTC (−)) was 76.2% and the DPM/ml ([1]; 0.05 μM, listed as FTC (−)) was 28,890 DPM/ml. The “% Inhibition (Corrected)” value ([1]; 0.1 μM, listed as FTC (−)) was 93.5%, the DPM/ml ([1]; 0.1 μM, listed as FTC (−)) was 13,175 DPM/ml and the “% Inhibition (Corrected)” value ([1]; 0.5 μM, listed as FTC (−)) was 97.6%. For the same compound, the DPM/ml ([1]; 0.5 μM, listed as FTC (−)) was 9,485 DPM/ml, the EC50 ([1]; summary range, read-out: EC50 against HIV) was 7.7 to 20 nM and the “activity against HBV” value [8] was “significant activity”.
In the case of `Nc1nc2c(ncn2[C@H]2C=C[C@@H](CO)O2)c(=O)[nH]1` [(+)-enantiomer of carbovir, 2′,3′-didehydro-2′,3′-dideoxyguanosine], the EC50 [9] is listed as greater than 60000 nM.
In the case of `Nc1nc2c(ncn2[C@H]2C=C[C@@H](CO)O2)c(=O)[nH]1` [(−)-enantiomer of carbovir, 2′,3′-didehydro-2′,3′-dideoxyguanosine], the EC50 [9] is listed as 800 nM.

Reference: patent US20090239887A1, “Method of resolution and antiviral activity of 1,3-oxathiolane nucleoside enantiomers” (Emory University, priority 1990, published 2009)
